According to ChEMBL document CHEMBL4033707, “Discovery of a novel aminopyrazine series as selective PI3Kα inhibitors” (Bioorg Med Chem Lett, 2017):
≈ marks a conversion by molar mass, not a printed value. Calls of active or inactive are those of the source. The rule behind the calls is not given here.

Experiments:
[1] = target: T1, Phosphatidylinositol 4,5-bisphosphate 3-kinase catalytic subunit beta isoform (Homo sapiens, UniProt P42338); assay: Inhibition of PI3Kbeta (unknown origin)
[2] = target: Phosphatidylinositol 4,5-bisphosphate 3-kinase catalytic subunit alpha isoform (Homo sapiens, UniProt P42336); assay: Inhibition of PI3Kalpha (unknown origin)
Phosphatidylinositol 4,5-bisphosphate 3-kinase catalytic subunit alpha isoform, sequence (P42336 whole entry, canonical isoform): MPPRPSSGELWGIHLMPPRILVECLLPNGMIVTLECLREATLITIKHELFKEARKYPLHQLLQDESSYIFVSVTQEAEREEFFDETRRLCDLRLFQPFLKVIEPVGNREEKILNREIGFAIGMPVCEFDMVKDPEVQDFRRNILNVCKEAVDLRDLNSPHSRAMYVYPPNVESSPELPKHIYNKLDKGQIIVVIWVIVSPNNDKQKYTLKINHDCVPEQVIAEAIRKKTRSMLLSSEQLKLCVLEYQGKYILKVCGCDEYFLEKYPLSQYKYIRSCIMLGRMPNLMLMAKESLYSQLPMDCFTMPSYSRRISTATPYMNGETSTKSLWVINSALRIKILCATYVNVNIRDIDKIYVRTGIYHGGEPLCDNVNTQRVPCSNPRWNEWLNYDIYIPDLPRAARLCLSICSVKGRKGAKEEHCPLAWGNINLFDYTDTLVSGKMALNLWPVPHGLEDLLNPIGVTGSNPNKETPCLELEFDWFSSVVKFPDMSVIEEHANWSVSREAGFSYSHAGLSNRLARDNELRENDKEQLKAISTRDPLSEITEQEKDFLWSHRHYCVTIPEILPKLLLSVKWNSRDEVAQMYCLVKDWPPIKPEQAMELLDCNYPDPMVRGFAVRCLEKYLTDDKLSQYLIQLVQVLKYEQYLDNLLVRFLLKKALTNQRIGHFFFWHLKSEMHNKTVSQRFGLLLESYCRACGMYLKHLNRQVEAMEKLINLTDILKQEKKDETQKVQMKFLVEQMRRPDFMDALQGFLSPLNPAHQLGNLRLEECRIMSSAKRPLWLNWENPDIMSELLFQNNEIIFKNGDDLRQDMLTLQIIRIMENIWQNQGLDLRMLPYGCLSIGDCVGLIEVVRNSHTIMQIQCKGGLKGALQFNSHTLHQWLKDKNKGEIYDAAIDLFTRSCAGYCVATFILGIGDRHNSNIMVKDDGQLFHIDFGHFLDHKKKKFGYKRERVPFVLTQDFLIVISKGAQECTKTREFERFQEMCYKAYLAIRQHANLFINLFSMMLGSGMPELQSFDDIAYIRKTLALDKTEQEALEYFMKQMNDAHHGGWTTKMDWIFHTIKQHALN

[3] = target: T1, Phosphatidylinositol 4,5-bisphosphate 3-kinase catalytic subunit beta isoform; assay: Inhibition of PI3Kbeta in PTEN-deficient human MDA-MB-468 cells assessed as reduction in AKT phosphorylation at Ser473
[4] = Inhibition of PI3Kalpha mutant in human BT474 cells assessed as reduction in AKT phosphorylation at Thr308; assay type: cell-based; settings: BT-474
[5] = Dissociation constant, pKa of the compound; assay type: physicochemical
[6] = Clearance in Han Wistar rat at 4 umol/kg, iv or 10 umol/kg, po; assay type: ADME, organism-based; settings: in vivo
[7] = Apparent permeability of the compound across apical side to basolateral side in human Caco2 cells; assay type: ADME, cell-based; settings: Caco-2
[8] = Octanol-buffer partition coefficient, log D of the compound at pH 7.4 by shake-flask method; assay type: physicochemical
[9] = Volume of distribution in Han Wistar rat at 4 umol/kg, iv or 10 umol/kg, po; assay type: ADME, organism-based; settings: in vivo
[10] = Aqueous solubility of the compound in phosphate buffer at pH 7.4; assay type: physicochemical
[11] = Oral bioavailability in Han Wistar rat at 10 umol/kg; assay type: ADME, organism-based; settings: in vivo
[12] = target: Phosphatidylinositol 4-kinase beta (Homo sapiens, UniProt Q9UBF8); assay: Inhibition of human PI4KB (1 to 801 residues) by ADP Glo HTS assay
[13] = target: Sphingosine kinase 2 (Homo sapiens) (UniProt Q9NRA0); assay: Inhibition of human SPHK 2 (1 to 654 residues) at 50 uM by ADP Glo HTS assay
[14] = target: Serine/threonine-protein kinase mTOR (Homo sapiens, UniProt P42345); assay: Inhibition of m-TOR (unknown origin)
[15] = target: Diacylglycerol kinase beta (Homo sapiens) (UniProt Q9Y6T7); assay: Inhibition of human DGKbeta (1 to 804 residues) at 50 uM by ADP Glo HTS assay
[16] = target: Choline kinase alpha (Homo sapiens) (UniProt P35790); assay: Inhibition of human CHKalpha (1 to 457 residues) at 50 uM by ADP Glo HTS assay
[17] = Aqueous solubility of the compound in phosphate buffer at pH 7.4 using crystalline sample; assay type: physicochemical
[18] = tested on: MCF7; assay: Anti-tumor activity against human MCF7 cells harboring PI3KCA E545K mutant xenografted in Swiss nu/nu mouse assessed as tumor growth inhibition at 25 mg/kg, po administered twice daily for 21 days measured post last dose relative to control; assay type: functional; settings: 504 h, read-out: TGI
[19] = Clearance in Beagle dog at 1 umol/kg, po; assay type: ADME, Canis lupus familiaris; settings: in vivo
[20] = target: Choline/ethanolamine kinase (Homo sapiens) (UniProt Q9Y259); assay: Inhibition of human CHKbeta (1 to 395 residues) at 50 uM by ADP Glo HTS assay
[21] = target: Phosphatidylinositol 3-kinase regulatory subunit beta (Homo sapiens) (UniProt O00459); assay: Inhibition of human PI3K p85beta (1 to 724 residues) at 50 uM by ADP Glo HTS assay
Phosphatidylinositol 3-kinase regulatory subunit beta (Homo sapiens), sequence (O00459 whole entry, the tested form may be a part): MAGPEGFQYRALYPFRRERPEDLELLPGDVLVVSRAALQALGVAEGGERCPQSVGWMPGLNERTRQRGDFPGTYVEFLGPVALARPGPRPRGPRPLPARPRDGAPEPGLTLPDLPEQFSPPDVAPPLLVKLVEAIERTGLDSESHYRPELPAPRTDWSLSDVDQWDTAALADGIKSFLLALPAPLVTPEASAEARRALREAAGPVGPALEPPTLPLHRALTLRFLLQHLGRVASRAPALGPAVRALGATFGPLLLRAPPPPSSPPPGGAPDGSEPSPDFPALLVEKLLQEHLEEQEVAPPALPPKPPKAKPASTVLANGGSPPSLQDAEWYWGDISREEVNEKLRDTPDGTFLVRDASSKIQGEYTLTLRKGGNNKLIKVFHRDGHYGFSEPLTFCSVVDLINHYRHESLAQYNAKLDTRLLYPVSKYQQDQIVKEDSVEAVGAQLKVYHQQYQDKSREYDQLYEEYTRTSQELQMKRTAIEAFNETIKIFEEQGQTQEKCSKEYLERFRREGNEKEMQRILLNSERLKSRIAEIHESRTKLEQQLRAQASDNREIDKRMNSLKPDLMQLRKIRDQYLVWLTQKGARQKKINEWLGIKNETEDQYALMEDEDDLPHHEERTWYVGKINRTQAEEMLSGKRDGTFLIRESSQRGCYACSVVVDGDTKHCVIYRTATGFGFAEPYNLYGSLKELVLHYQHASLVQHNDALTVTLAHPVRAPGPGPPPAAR

[22] = tested on: MCF7; assay: Anti-tumor activity against human MCF7 cells harboring PI3KCA E545K mutant xenografted in Swiss nu/nu mouse assessed as tumor growth inhibition at 50 mg/kg, po administered twice daily for 21 days measured post last dose relative to control; assay type: functional; settings: 504 h, read-out: TGI
[23] = Oral bioavailability in Beagle dog at 1 umol/kg; assay type: ADME, organism-based, Canis lupus familiaris; settings: in vivo
[24] = tested on: MCF7; assay: Anti-tumor activity against human MCF7 cells harboring PI3KCA E545K mutant xenografted in Swiss nu/nu mouse assessed as tumor growth inhibition at 10 mg/kg, po administered twice daily for 21 days measured post last dose relative to control; assay type: functional; settings: 504 h, read-out: TGI
[25] = tested on: Phosphatidylinositol 4,5-bisphosphate 3-kinase catalytic subunit alpha isoform (Homo sapiens), P42336 [E545K]; assay: Inhibition of human PI3Kalpha (2 to 1068 residues)/p85 (1 to 724 residues) E545K mutant at 50 uM by ADP Glo HTS assay
[26] = target: Diacylglycerol kinase zeta (Homo sapiens) (UniProt Q13574); assay: Inhibition of human DGKzeta (1 to 929 residues) at 50 uM by ADP Glo HTS assay
Diacylglycerol kinase zeta (Homo sapiens), sequence (Q13574 whole entry, the tested form may be a part): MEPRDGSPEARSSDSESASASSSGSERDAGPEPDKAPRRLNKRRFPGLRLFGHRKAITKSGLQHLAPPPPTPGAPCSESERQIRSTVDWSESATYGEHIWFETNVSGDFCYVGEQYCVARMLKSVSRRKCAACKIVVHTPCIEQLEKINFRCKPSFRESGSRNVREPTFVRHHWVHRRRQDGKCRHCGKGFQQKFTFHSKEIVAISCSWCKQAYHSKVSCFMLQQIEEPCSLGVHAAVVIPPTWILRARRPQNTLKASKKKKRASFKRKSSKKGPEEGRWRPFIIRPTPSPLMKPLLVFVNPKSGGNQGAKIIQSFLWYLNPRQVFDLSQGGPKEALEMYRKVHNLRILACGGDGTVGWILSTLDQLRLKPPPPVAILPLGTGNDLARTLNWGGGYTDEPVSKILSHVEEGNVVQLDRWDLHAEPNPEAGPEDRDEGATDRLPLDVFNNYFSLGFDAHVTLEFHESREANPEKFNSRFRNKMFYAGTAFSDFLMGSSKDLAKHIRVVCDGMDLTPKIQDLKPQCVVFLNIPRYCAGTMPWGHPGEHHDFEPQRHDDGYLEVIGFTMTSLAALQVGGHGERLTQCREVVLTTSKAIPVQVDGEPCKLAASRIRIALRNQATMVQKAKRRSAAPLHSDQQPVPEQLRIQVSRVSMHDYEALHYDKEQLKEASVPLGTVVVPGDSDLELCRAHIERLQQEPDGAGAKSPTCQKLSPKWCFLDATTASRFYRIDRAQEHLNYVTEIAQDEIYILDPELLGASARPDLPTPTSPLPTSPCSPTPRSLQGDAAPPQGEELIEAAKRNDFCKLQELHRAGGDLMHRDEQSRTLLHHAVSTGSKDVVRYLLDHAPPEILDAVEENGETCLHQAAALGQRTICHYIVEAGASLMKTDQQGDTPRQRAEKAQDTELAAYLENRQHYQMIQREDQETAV

[27] = target: Phosphatidylinositol 3-kinase regulatory subunit alpha (Homo sapiens) (UniProt P27986); assay: Inhibition of human PI3K p85alpha (1 to 724 residues) at 50 uM by ADP Glo HTS assay
[28] = target: T2, Phosphatidylinositol 4,5-bisphosphate 3-kinase catalytic subunit gamma isoform (Homo sapiens, UniProt P48736); assay: Inhibition of human PI3Kgamma (2 to 1102 residues) at 50 uM by ADP Glo HTS assay
[29] = target: Sphingosine kinase 1 (Homo sapiens) (UniProt Q9NYA1); assay: Inhibition of human SphK1 (1 to 384 residues) at 50 uM by […] HTS assay
[30] = target: T2, Phosphatidylinositol 4,5-bisphosphate 3-kinase catalytic subunit gamma isoform; assay: Inhibition of PI3Kgamma (unknown origin)
[31] = AUC in mouse at 100 mg/kg, po; assay type: ADME, organism-based; settings: in vivo
[32] = tested on: Phosphatidylinositol 4,5-bisphosphate 3-kinase catalytic subunit alpha isoform (Homo sapiens), P42336 [E542K]; assay: Inhibition of human PI3Kalpha (2 to 1068 residues)/p85 (1 to 724 residues) E542K mutant at 50 uM by ADP Glo HTS assay
[33] = target: Diacylglycerol kinase gamma (Homo sapiens) (UniProt P49619); assay: Inhibition of human DGKgamma (1 to 752 residues) at 50 uM by ADP Glo HTS assay
[34] = target: Phosphatidylinositol 4,5-bisphosphate 3-kinase catalytic subunit delta isoform (Homo sapiens, UniProt O00329); assay: Inhibition of PI3Kdelta (unknown origin)
Phosphatidylinositol 4,5-bisphosphate 3-kinase catalytic subunit delta isoform, sequence (O00329 whole entry, canonical isoform): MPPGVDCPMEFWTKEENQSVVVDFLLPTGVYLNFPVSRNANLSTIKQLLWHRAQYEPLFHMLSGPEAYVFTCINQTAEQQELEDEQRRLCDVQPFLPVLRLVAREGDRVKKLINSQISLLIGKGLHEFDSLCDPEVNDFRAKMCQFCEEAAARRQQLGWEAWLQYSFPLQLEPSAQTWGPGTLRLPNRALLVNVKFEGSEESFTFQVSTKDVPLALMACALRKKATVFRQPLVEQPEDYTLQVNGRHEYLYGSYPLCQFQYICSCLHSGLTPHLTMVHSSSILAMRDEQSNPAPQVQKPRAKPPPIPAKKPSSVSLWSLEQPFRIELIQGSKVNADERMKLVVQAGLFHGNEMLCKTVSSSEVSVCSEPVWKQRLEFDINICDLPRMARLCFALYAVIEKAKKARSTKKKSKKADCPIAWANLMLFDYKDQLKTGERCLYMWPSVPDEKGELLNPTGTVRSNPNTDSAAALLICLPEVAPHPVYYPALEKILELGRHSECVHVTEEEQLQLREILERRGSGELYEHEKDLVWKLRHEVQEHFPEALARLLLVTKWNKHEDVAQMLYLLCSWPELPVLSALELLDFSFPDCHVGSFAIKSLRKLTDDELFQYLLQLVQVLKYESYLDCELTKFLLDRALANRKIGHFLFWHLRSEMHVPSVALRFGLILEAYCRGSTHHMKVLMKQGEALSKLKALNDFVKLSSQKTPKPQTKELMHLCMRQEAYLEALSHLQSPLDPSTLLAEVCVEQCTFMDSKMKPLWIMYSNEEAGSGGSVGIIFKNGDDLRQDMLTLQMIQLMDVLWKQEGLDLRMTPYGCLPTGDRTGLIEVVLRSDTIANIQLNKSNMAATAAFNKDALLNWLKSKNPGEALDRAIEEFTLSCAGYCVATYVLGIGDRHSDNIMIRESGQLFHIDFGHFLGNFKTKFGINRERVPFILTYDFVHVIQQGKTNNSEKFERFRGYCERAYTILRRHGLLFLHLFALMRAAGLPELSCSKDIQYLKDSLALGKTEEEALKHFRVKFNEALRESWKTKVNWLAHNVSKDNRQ

[35] = tested on: Canis familiaris; assay: Volume of distribution in Beagle dog at 1 umol/kg, po; assay type: ADME, Canis lupus familiaris; settings: in vivo
[36] = Cmax in mouse at 100 mg/kg, po; assay type: ADME, organism-based; design: dose 100 mg/kg, route oral; settings: in vivo
[37] = target: Phosphoinositide 3-kinase regulatory subunit 4 (Homo sapiens, UniProt Q99570); assay: Inhibition of VPS15 (unknown origin)

T1 sequence (P42338 whole entry, canonical isoform): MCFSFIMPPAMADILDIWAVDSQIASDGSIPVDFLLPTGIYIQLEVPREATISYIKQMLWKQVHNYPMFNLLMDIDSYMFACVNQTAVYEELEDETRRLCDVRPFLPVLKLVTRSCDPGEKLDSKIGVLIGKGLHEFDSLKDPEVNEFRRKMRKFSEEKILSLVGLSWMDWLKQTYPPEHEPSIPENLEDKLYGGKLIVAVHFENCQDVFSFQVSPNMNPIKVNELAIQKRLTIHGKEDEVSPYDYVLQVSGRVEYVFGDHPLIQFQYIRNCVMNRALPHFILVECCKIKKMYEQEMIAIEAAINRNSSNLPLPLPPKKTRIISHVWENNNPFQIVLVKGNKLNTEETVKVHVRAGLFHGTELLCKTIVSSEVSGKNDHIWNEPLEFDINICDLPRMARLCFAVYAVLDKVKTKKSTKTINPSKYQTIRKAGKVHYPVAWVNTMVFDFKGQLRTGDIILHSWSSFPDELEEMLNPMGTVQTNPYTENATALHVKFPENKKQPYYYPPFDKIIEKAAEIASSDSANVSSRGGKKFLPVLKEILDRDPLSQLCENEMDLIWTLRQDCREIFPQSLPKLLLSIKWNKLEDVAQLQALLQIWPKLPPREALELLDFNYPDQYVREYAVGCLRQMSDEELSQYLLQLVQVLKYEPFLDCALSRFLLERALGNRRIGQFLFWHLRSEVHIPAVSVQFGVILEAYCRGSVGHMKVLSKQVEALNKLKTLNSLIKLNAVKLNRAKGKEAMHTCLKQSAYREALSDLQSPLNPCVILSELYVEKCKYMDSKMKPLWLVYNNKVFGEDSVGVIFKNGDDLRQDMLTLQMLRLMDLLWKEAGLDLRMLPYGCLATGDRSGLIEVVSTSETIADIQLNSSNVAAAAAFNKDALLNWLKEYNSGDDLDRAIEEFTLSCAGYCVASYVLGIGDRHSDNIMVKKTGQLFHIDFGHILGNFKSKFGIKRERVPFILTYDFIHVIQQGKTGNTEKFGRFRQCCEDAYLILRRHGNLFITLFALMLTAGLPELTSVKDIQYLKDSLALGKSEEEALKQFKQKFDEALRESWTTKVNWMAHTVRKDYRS

Compound: Cc1nc(N)c(-c2nc(C3CCN(C)CC3)nn2C)nc1-c1cnc2ccccn12
- IC50 [1]: 0.032 µM
- IC50 [2]: 0.005 µM
- IC50 [3]: 0.2 µM
- IC50 [4]: 0.049 µM

Compound: CN(C)CC(=O)N1CCC(n2cc(-c3cnc(N)c(-n4nnc5ccccc54)n3)cn2)CC1
- IC50 [4]: 0.058 µM

Compound: CNC(=O)c1nc(-c2nc(-c3cnn4ccccc34)c(C)nc2N)n(C)n1
- pKa [5]: 2.3
- clearance [6]: 27 mL/min/kg
- Papp A→B [7]: 36 ×10⁻⁶ cm/s
- IC50 [1]: 0.024 to 0.18 µM
- logD [8]: 2.3
- Vd [9]: 0.8 L/kg
- solubility [10]: 7 µM (≈ 2.54 µg/mL)
- IC50 [2]: < 0.01 µM
- bioavailability [11]: 9%
- IC50 [3]: 1.5 µM
- IC50 [4]: 0.024 µM

Compound: CNC(=O)c1nc(-c2nc(-c3cnc4ccccn34)cnc2N)n(C)n1
- IC50 [1]: 1.3 µM
- IC50 [2]: 0.02 µM
- IC50 [3]: 21 µM
- IC50 [4]: 0.38 µM

Compound: CNC(=O)c1nc(-c2nc(-c3cnc4ccccn34)c(C)nc2N)n(C)n1
- pKa [5]: 6.2
- IC50 [12]: 2.8 µM
- inhibition [13]: inactive
- IC50 [14]: 29 µM
- clearance [6]: 11 mL/min/kg
- Papp A→B [7]: 6 ×10⁻⁶ cm/s
- inhibition [15]: inactive
- IC50 [1]: 0.087 to 0.54 µM
- inhibition [16]: inactive
- solubility thermodynamic [17]: 26 µM (≈ 9.45 µg/mL)
- inhibition in vivo at 25 mg/kg [18]: 44%
- logD [8]: 1.8
- Vd [9]: 0.9 L/kg
- CL/F [19]: 19 mL/min/kg
- inhibition [20]: inactive
- IC50 [2]: 0.006 µM
- inhibition [21]: inactive
- inhibition in vivo at 50 mg/kg [22]: 86%
- bioavailability [11]: 46%
- bioavailability [23]: 60%
- inhibition in vivo at 10 mg/kg [24]: 29%
- inhibition [25]: inactive
- inhibition [26]: inactive
- inhibition [27]: inactive
- inhibition [28]: inactive
- inhibition [29]: inactive
- IC50 [30]: 0.043 µM
- AUC [31]: 36.2 µM·h
- inhibition [32]: inactive
- inhibition [33]: inactive
- IC50 [34]: 0.016 µM
- Vd [35]: 0.8 L/kg
- IC50 [3]: 8.4 µM
- IC50 [4]: 0.087 µM
- Cmax [36]: 18 µM
- IC50 [37]: 16 µM

Compound: CO[C@H]1CC[C@H](NC(=O)c2nc(-c3nc(-c4cnc5ccccn45)c(C)nc3N)n(C)n2)CC1
- IC50 [3]: 16 µM
- IC50 [4]: 0.022 µM

Compound: Cc1nc(N)c(-c2cnn(C3CCN(C)CC3)n2)nc1-c1cnc2ccccn12
- IC50 [1]: 0.076 µM
- IC50 [2]: 0.008 µM
- IC50 [3]: 0.55 µM
- IC50 [4]: 0.1 µM

Compound: Cc1nc(N)c(-c2nc(C(=O)NCCN(C)C)nn2C)nc1-c1cnn2ccccc12
- IC50 [3]: 1.5 µM
- IC50 [4]: 0.006 µM
